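96-well plates; 48 h exposure; 5 concentrations. Endpoints by linear interpolation between flanking doses. Not reached: highest tested concentration assigned. GI50 marks 50% less growth. TGI marks complete inhibition of growth.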
Assays:
Assay in all cases: NCI tumour cell line growth inhibition, 48 h
K-562 leukemia = test system: K-562 leukemia
HL-60(TB) leukemia = test system: HL-60(TB) leukemia
T-47D breast = test system: T-47D breast
KM12 colon = test system: KM12 colon
NCI-H226 lung = test system: NCI-H226 lung
TK-10 renal = test system: TK-10 renal
SK-MEL-2 melanoma = test system: SK-MEL-2 melanoma
DU-145 prostate = test system: DU-145 prostate
HOP-92 NSCLC = test system: HOP-92 NSCLC
NCI/ADR-RES ovarian = test system: NCI/ADR-RES ovarian

Compound | TGI (K-562 leukemia) [µM] | TGI (HL-60(TB) leukemia) [µM] | TGI (T-47D breast) [µM] | TGI (KM12 colon) [µM] | TGI (NCI-H226 lung) [µM] | TGI (TK-10 renal) [µM] | TGI (SK-MEL-2 melanoma) [µM] | TGI (DU-145 prostate) [µM] | TGI (HOP-92 NSCLC) [µM] | TGI (NCI/ADR-RES ovarian) [µM] | GI50 (K-562 leukemia) [µM] | GI50 (HL-60(TB) leukemia) [µM] | GI50 (T-47D breast) [µM] | GI50 (KM12 colon) [µM] | GI50 (NCI-H226 lung) [µM] | GI50 (TK-10 renal) [µM] | GI50 (SK-MEL-2 melanoma) [µM] | GI50 (DU-145 prostate) [µM] | GI50 (HOP-92 NSCLC) [µM] | GI50 (NCI/ADR-RES ovarian) [µM]
O=C1NC(=O)[C@@]2(CC[C@@H](O)C2)c2ccncc21 | > 100 | > 100 | > 100 | > 100 | > 100 | > 100 | > 100 | > 100 | > 100 | > 100 |  |  |  |  |  |  |  |  |  | 
Cc1ccc2[nH]c3c(c2c1)N=c1ccccc1=NO3 | > 100 | > 100 | > 100 | > 100 | > 100 | > 100 | > 100 | > 100 | > 100 | 71.2 | > 100 | > 100 | 74.4 | 34.8 | 70 | 38.2 | > 100 | 34.6 | > 100 | 22.7
COc1cccc(-n2ncc3c(N/N=C/c4ccc(C)cc4)ncnc32)c1 | > 25 | > 25 | > 25 | > 25 | > 25 | > 25 | > 25 | > 25 | > 25 | > 25 | > 25 | > 25 | > 25 | > 25 | > 25 | > 25 | > 25 | > 25 | 2.14 | > 25
COC12C=C/C(=C(/C(=O)OCCSc3ccnn3C)C(=O)CCCCCCCCC3(OC)C=C/C(=C(/C(=O)OCCSc4ccnn4C)C(=O)CCCCCCCC1)O3)O2 | 18 | 2.63 | > 32.5 | 2.1 | 1.76 | > 32.5 | 2.8 | > 32.5 | 2.55 | > 32.5 | 1.05 | 0.929 | 1.26 | 0.813 | 0.827 | 2.35 | 0.928 | 1.31 | 0.847 | 1.64
c1ccc2cc(Cn3cc[n+](Cc4ccc5ccccc5c4)c3)ccc2c1 | 14.5 | 1.35 | 5.24 | 2.62 | 14.3 | 14.3 | 4.35 | 14.7 | 1.39 | > 100 | 1.02 | 0.264 | 0.385 | 1.15 | 1.72 | 3.32 | 1.37 | 2.83 | 0.16 | > 100
Cc1cn(CCC(N)C(=O)O)c(=O)[nH]c1=O (stereo not given) | > 100 | > 100 | > 100 | > 100 | > 100 | > 100 | > 100 | > 100 | > 100 | > 100 |  |  |  |  |  |  |  |  |  | 
COC1(OC)C2(Cl)C(Cl)=C(Cl)C1(Cl)C1c3ccc(C(C)=O)c4cccc(c34)C12 (stereo not given) | > 100 | 47.3 | 99.3 | > 100 | 81.4 | > 100 | 50.1 | > 100 | 22.1 | > 100 |  |  |  |  |  |  |  |  |  | 
CC(CN1CC(=O)NC(=O)C1)N1CC(=O)NC(=O)C1 (stereo not given) | > 750 | 690 | > 750 | > 729 | 505 | > 702 | 741 | > 750 | 732 | > 698 |  |  |  |  |  |  |  |  |  | 
O=C(O)/C=C/c1ccc[c]([Sb](=[O])([OH])[OH])c1 | > 100 | > 100 | > 100 | > 100 | > 100 | > 100 | > 100 | > 100 | > 100 | > 100 | > 100 | > 100 | > 100 | > 100 | > 100 | > 100 | > 100 | > 100 | > 100 | > 100
CCCCCCCN(CCCCCCC)C(=N)c1ccnc2ccccc12 | 3.48 | 3.7 | 4.3 | 3.49 | 3.78 | 2.97 | 3.35 | 3.04 | 3 | 2.96 | 1.27 | 1.75 | 1.78 | 1.82 | 1.88 | 1.51 | 1.71 | 1.6 | 1.33 | 1.54
COC(NC(N)=O)C(=O)O (stereo not given) | > 100 | > 100 | > 100 | > 100 | > 100 | > 100 | > 100 | > 100 | > 100 | > 100 |  |  |  |  |  |  |  |  |  | 
Cc1c(N)nc([C@H](CC(N)=O)NC[C@H](N)C(N)=O)nc1C(=O)N[C@H](C(=O)N[C@H](C)[C@@H](O)CC(=O)N[C@H](C(=O)NC(O[C@@H]1O[C@@H](C)[C@@H](N)[C@@H](O)[C@H]1O)C(O)c1nc(-c2nc(C(=O)NCCCCN)cs2)cs1)[C@@H](C)O)[C@@H](O[C@@H]1O[C@@H](CO)[C@@H](O)[C@H](O)[C@@H]1O[C@H]1O[C@H](CO)[C@@H](O)[C@H](OC(N)=O)[C@@H]1O)c1c[nH]cn1 (stereo not given in full) | > 50 | > 50 | > 50 | > 50 | > 50 | > 50 | > 50 | > 50 | > 50 | > 50 |  |  |  |  |  |  |  |  |  | 

Source: PubChem BioAssay (NCI)
